From patent publication US8586591B2, “Aminopyrazine derivative and medicine” (Nippon Shinyaku Co., Ltd., priority 2009, dated 2013) come the findings set out here.

Counter-ions that a name gives are not always drawn. Like-named read-outs stand apart in the source and are kept apart here.

In one assay the target is T1, JAK2 tyrosine kinase (Homo sapiens, UniProt O60674).
T1 construct: purchased Carnabioscience Co
The experiment in a line: Test 1: inhibitory activity to JAK2 tyrosine kinase (ELISA). The class given is biochemical. The note with it: 25 μM ATP in substrate solution, 30° C. for 1 hour, n=2. In short, it runs like this:
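This is an ELISA read at A450 (HRP anti-phosphotyrosine antibody, TMB) of biotin-peptide phosphorylation captured on streptavidin. Enzyme solution was 0.75 nM JAK2, and the substrate solution was 625 nM peptide with 25 μM ATP in Tris pH 7.5 buffer. The reaction ran 1 h at 30 °C with compounds in duplicate, and IC50 was fitted non-linearly.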

Another assay addresses T2, JAK3 tyrosine kinase (Homo sapiens, UniProt P52333).
T2 construct: purchased Carnabioscience Co
T2 sequence (P52333 1-1124): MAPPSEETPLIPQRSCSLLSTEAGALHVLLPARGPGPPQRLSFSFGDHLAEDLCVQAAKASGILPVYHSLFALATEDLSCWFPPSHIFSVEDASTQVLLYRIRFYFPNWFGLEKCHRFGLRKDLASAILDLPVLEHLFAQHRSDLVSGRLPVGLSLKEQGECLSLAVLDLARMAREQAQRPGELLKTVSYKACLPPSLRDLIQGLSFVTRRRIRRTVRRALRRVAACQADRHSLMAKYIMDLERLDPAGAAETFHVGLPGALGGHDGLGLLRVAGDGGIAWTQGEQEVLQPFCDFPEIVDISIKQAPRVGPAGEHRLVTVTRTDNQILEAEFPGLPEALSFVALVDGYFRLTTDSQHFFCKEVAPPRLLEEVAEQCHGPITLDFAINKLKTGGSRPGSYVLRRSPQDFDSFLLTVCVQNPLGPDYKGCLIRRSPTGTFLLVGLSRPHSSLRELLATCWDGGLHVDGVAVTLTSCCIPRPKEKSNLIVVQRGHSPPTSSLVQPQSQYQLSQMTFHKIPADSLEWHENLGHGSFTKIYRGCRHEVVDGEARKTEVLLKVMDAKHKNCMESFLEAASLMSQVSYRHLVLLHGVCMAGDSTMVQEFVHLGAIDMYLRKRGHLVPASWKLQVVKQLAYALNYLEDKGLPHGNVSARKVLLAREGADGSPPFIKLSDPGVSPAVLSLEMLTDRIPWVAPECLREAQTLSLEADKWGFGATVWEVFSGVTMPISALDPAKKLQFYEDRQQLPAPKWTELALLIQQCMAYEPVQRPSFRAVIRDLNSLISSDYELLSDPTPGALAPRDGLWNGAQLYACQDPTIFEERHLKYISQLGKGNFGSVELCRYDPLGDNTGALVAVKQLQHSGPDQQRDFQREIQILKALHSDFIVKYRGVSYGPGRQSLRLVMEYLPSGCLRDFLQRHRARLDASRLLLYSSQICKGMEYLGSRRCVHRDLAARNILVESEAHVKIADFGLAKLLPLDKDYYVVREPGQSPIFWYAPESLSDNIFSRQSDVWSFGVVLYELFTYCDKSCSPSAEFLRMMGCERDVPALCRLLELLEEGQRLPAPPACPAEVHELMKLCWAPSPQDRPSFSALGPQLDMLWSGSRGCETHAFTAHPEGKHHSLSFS
The experiment in a line: Test 1: inhibitory activity to JAK3 tyrosine kinase (ELISA). It counts as biochemical. The note with it: 25 μM ATP in substrate solution, 30° C. for 1 hour, n=2. In short, it runs like this: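 ELISA of JAK3 kinase activity with absorbance read at 450 nm. Compounds were tested from DMSO dilution series at 100-fold the measurement concentrations (1000–0.01 μM), diluted up to 20 times in assay buffer, against a DMSO negative control. IC50 was estimated by non-linear regression of absorbance.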

Assay [1] addresses BaF3 cells into which JAK2 V617F gene was introduced (Homo sapiens, UniProt O60674, V617F, cells depend on it). Nature of the assay: Test 2: growth inhibitory action against variant JAK2 expressed cells (MTT method). The class given is cell-based. The conditions noted are these: incubation for 3 days, triplicate, read-out: concentration of the test material which inhibited 50% of the cell growth (IC50). On the procedure: Test 2: Growth inhibitory action against variant JAK2 expressed cells
BaF3 cells into which JAK2 V617F gene was introduced ([…]) were inoculated on a 96-well plate in an amount of 1×10^3 cells/well and allowed to stand in a CO2 incubator. Next day, the test material was added to the cells. The test material was serially diluted with DMSO to give 10 mM, 6 mM, 3 mM, 1 mM, 600 μM, 300 μM, 100 μM, 60 μM, 30 μM, or 10 μM solution. This was diluted 100 times with distilled water to give 100 μM, 60 μM, 30 μM, 10 μM, 6 μM, 3 μM, 1 μM, 600 nM, 300 nM, or 100 nM solution. This solution of test material was added to the well in an amount of 10 μl/well. As a negative control, 1% DMSO solution was added to the well in an amount of 10 μl/well. In the above operation, the final concentration of the test material became 10 μM, 6 μM, 3 μM, 1 μM, 600 nM, 300 nM, 100 nM, 60 nM, 30 nM, 10 nM, or 0 nM (0.1% DMSO solution). The addition of the test material solution to each well was made in triplicate.
After continuous incubation for 3 days, the viable count was determined by an MTT method. The MTT method was carried out as follows. First, 10 μl each of solution containing 5 mg/ml of MTT (3-(4,5-dimethylthiazol-2-yl)-2,5-diphenyltetrazolium bromide) was added to each well. The plate was allowed to stand in a CO2 incubator for 4 hours, and then 100 μl of 0.04N HCl/2-propanol solution was added to each well to stop the reaction. The generated MTT-formazan was dissolved well with a multi-channel pipette, and the absorbance at 595 nm was measured with reference to that at 655 nm (Thermo Co.; Multiskan FC). Non-linear regression analysis was made by means of a SAS system (SAS Institute Inc.), and the concentration (IC50) of the test material which inhibited 50% of the cell growth was estimated.

T1 sequence (O60674 whole entry): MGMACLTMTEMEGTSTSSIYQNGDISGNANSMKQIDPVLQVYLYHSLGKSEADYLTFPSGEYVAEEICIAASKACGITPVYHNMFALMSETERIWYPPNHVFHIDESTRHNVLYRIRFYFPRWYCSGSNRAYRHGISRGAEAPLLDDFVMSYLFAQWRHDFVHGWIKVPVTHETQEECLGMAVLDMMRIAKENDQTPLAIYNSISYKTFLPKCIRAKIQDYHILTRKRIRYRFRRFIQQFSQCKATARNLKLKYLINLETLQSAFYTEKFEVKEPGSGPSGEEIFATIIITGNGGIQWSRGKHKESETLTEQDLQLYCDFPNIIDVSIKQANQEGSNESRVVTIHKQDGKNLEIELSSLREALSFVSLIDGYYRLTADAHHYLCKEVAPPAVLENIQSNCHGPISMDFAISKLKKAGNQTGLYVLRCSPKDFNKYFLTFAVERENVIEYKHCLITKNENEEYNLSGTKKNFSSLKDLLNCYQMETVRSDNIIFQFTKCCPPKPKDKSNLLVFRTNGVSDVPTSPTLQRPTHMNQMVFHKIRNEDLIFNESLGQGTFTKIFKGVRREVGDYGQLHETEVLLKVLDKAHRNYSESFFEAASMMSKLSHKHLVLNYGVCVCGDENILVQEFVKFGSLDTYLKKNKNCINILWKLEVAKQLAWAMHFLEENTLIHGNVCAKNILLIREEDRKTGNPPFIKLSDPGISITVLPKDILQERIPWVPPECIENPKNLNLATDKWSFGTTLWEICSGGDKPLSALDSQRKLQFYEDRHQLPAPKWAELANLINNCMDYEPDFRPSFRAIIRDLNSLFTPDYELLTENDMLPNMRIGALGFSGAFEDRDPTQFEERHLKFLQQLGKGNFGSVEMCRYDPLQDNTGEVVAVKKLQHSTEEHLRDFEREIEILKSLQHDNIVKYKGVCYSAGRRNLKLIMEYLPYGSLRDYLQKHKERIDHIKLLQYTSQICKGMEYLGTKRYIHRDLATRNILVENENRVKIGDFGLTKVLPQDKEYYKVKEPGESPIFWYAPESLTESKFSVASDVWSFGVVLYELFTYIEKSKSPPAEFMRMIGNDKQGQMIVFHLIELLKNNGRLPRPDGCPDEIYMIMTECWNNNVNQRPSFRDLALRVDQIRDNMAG
Chain of BaF3 cells into which JAK2 V617F gene was introduced (O60674 whole entry V617F): as the sequence (O60674 whole entry) above, with V617F counted along it

For the compound `C[C@H](Nc1nc(Nc2cnccn2)cc(N2CCNC(=O)C2)n1)c1ccc(F)cc1` [Example 1, (S)-4-{2-[1-(4-Fluorophenyl)ethylamino]-6-(pyrazin-2-ylamino)pyrimidin-4-yl}piperazin-2-one], the IC50 against JAK2 tyrosine kinase is 0.94 nM; at JAK3 tyrosine kinase it was 45 nM. Also, the GI50 in assay [1] was 83 nM.

For `CC(=O)N[C@H]1CCN(c2cc(Nc3cnccn3)nc(N[C@@H](C)c3ccc(F)cc3)n2)C1` [Example 2, N-{(S)-1-[2-{[(S)-1-(4-Fluorophenyl)ethyl]amino-}-6-(pyrazin-2-ylamino)pyrimidin-4-yl]pyrrolidin-3-yl}acetamide hydrochloride], the half-inhibitory concentration (IC50) came out at 0.49 nM on JAK2 tyrosine kinase and 43 nM against JAK3 tyrosine kinase. The GI50 in assay [1] was found to be 70 nM.

For `C[C@H](Nc1cc(-c2cnn(C)c2)cc(Nc2cnccn2)n1)c1ccc(F)cc1` [Example 4, (S)—N^2-[1-(4-Fluorophenyl)ethyl]-4-(1-methyl-1H-pyrazol-4-yl)-N^6-(pyrazin-2-yl)pyridine-2,6-diamine hydrochloride], the IC50 came to 0.59 nM on JAK2 tyrosine kinase and 44 nM at JAK3 tyrosine kinase. Besides, the GI50 in assay [1] (hydrochloride) was found to be 71 nM.

As to `C[C@H](Nc1cc(-c2ccc(O)nc2)cc(Nc2cnccn2)n1)c1ccc(F)cc1` [Example 7, (S)-2′-[1-(4-Fluorophenyl)ethylamino]-6′-(pyrazin-2-ylamino)-3,4′-bipyridin-6-ol hydrochloride], the half-maximal inhibitory concentration (IC50) at JAK2 tyrosine kinase was found to be 0.42 nM; against JAK3 tyrosine kinase, 39 nM. Moreover, the GI50 in assay [1] turned out to be 90 nM.

For the compound `C[C@H](Nc1nc(Nc2cnccn2)cc(N2CCOCC2)n1)c1ccc(F)cc1` [Example 20, (S)—N^2-[1-(4-Fluorophenyl)ethyl]-6-morpholino-N^4-(pyrazin-2-yl)pyrimidine-2,4-diamine], the IC50 stood at 0.69 nM at JAK2 tyrosine kinase and 21 nM on JAK3 tyrosine kinase. The GI50 in assay [1] was found to be 55 nM.

As for `CC(=O)N[C@@H]1CCN(c2cc(Nc3cnccn3)nc(N[C@@H](C)c3ccc(F)cc3)n2)C1` [Example 27, N—((R)-1-{2-[(S)-1-(4-Fluorophenyl)ethylamino]-6-(pyrazin-2-ylamino)pyrimidin-4-}pyrrolidin-3-yl)acetamide hydrochloride], the results for the concentration for half-maximal inhibition (IC50) against JAK2 tyrosine kinase and on JAK3 tyrosine kinase were 0.52 nM and 42 nM, respectively. For the same compound, in assay [1], the GI50 came to 89 nM.

In the case of `C[C@H](Nc1cc(-c2cn[nH]c2)cc(Nc2cnccn2)n1)c1ccc(F)cc1` [Example 28, (S)—N^2-[1-(4-Fluorophenyl)ethyl]-N^6-(pyrazin-2-yl)-4-(1H-pyrazol-4-yl)pyridine-2,6-diamine], the 50% inhibitory concentration (IC50) was found to be 1.2 nM against JAK2 tyrosine kinase and 110 nM at JAK3 tyrosine kinase. Further, in assay [1], the GI50 turned out to be 94 nM.

Regarding `C[C@H](Nc1cc(-c2cnn(C)c2)cc(Nc2cnccn2)n1)c1ccc(F)cc1` [Example 30, (S)—N^2-[1-(4-Fluorophenyl)ethyl]-4-(1-methyl-1H-pyrazol-4-yl)-N^6-(pyrazin-2-yl)pyridine-2,6-diamine maleate], the half-inhibitory concentration (IC50) against JAK2 tyrosine kinase was determined as 1.5 nM; at JAK3 tyrosine kinase it was 75 nM. In addition, the GI50 in assay [1] (maleate) amounted to 60 nM.

`C[C@H](Nc1nc(Nc2cnccn2)cc(N2CCOCC2)n1)c1ccc(F)cc1` [Example 31, (S)—N^2-[1-(4-Fluorophenyl)ethyl]-6-morpholino-N^4-(pyrazin-2-yl)pyrimidine-2,4-diamine maleate]: the IC50 is 0.41 nM on JAK2 tyrosine kinase and 26 nM against JAK3 tyrosine kinase. The GI50 in assay [1] (maleate) was 87 nM.

Take `C[C@H](Nc1nc(Nc2cnccn2)cc(N2CCC(O)C2)n1)c1ccc(F)cc1` (stereo partly drawn) [Example 50, 1-{2-[(S)-1-(4-Fluorophenyl)ethylamino]-6-(pyrazin-2-ylamino)pyrimidin-4-yl}pyrrolidin-3-ol hydrochloride]: the IC50 turned out to be 0.84 nM against JAK2 tyrosine kinase and 29 nM at JAK3 tyrosine kinase. The GI50 in assay [1] is 53 nM.

Regarding `COCn1cc(-c2cc(Nc3cnccn3)nc(N[C@@H](C)c3ccc(F)cc3)c2)cn1` [Example 219, (S)—N^2-[1-(4-Fluorophenyl)ethyl]-4-[1-(methoxymethyl)-1H-pyrazol-4-yl]-N^6-(pyrazin-2-yl)pyridine-2,6-diamine], the concentration for half-maximal inhibition (IC50) on JAK2 tyrosine kinase came to 2.6 nM; against JAK3 tyrosine kinase, 69 nM.

Take `CNC1CN(c2cc(Nc3cnccn3)nc(N[C@@H](C)c3ccc(F)cc3)n2)C1` [Example 221, (S)—N^2-[1-(4-Fluorophenyl)ethyl]-6-[3-(methylamino)azetidin-1-yl]-N^4-(pyrazin-2-yl)pyrimidine-2,4-diamine]: the values for the IC50 at JAK2 tyrosine kinase and against JAK3 tyrosine kinase were 1.5 nM and 59 nM, respectively.

Take `C[C@H](Nc1nc(Nc2cnccn2)cc(N2CC(NC(N)=O)C2)n1)c1ccc(F)cc1` [Example 227, (S)-1-(1-{2-[1-(4-Fluorophenyl)ethylamino]-6-(pyrazin-2-ylamino)pyrimidin-4-yl}azetidin-3-yl)urea]: the IC50 against JAK2 tyrosine kinase turned out to be 1.1 nM; against JAK3 tyrosine kinase it was 20 nM.

On to `C[C@H](Nc1nc(Nc2cnccn2)cc(N2CC(CNC(=O)OC(C)(C)C)C2)n1)c1ccc(F)cc1` [Example 229, t-Butyl (S)-(1-{2-[1-(4-fluorophenyl)ethylamino]-6-(pyrazin-2-ylamino)pyrimidin-4-yl}azetidin-3-yl)methyl carbamate], for which the results for the IC50 at JAK2 tyrosine kinase and against JAK3 tyrosine kinase were 3.9 nM and 180 nM, respectively.

For the compound `C[C@H](Nc1nc(Nc2cnccn2)cc(N2CC(CN)C2)n1)c1ccc(F)cc1` [Example 230, (S)-6-[3-(Aminomethyl)azetidin-1-yl]-N^2-[1-(4-fluorophenyl)ethyl]-N^4-(pyrazin-2-yl)pyrimidine-2,4-diamine], the half-inhibitory concentration (IC50) on JAK2 tyrosine kinase worked out at 1.2 nM; against JAK3 tyrosine kinase, 63 nM.

Regarding `C[C@H](Nc1cc(N2CC(N3CCOCC3)C2)cc(Nc2cnccn2)n1)c1ccc(F)cc1` [Example 233, (S)—N^2-[1-(4-Fluorophenyl)ethyl]-4-[3-morpholinoazetidin-1-yl]-N^6-(pyrazin-2-yl)pyridine-2,6-diamine], the IC50 against JAK2 tyrosine kinase came out at 5.8 nM; on JAK3 tyrosine kinase it was 140 nM.

On to `C[C@H](Nc1cc(N2CC(N3CCC(O)CC3)C2)cc(Nc2cnccn2)n1)c1ccc(F)cc1` [Example 234, (S)-1-(1-{2-[1-(4-Fluorophenyl)ethylamino]-6-(pyrazin-2-ylamino)pyridin-4-yl}azetidin-3-yl)piperidin-4-ol], for which the half-inhibitory concentration (IC50) against JAK2 tyrosine kinase stood at 5.4 nM; against JAK3 tyrosine kinase it was 170 nM.
